Reference: patent US8846701B2, “Pyrazolo-quinazolines” (Nerviano Medical Sciences S.R.L., priority 2008, dated 2014)

Each compound was assayed on A2780 human ovarian cancer cells (assay: In vitro cell proliferation assay (CellTiter-Glo)). Details: 72 hours treatment.
Type: cell-based
Procedure: A2780 human ovarian and MCF7 human breast cancer cells (1250 cells/well) were seeded in white 384 well-plates in complete medium (RPMI 1640 or EMEM plus 10% Fetal bovine serum) and treated with compounds dissolved in 0.1% DMSO, 24 h after seeding. The cells were incubated at 37° C. and 5% CO2 and after 72 hours the plates were processed using CellTiter-Glo assay (Promega) following the manufacturer's instruction. CellTiter-Glo is a homogenous method based on the quantification of the ATP present, an indicator of metabolitically active cells. ATP is quantified using a system based on luciferase and D-luciferin resulting into light generation. The luminescent signal is proportional to the number of cells present in culture.
Briefly 25 μl/well reagent solution were added to each well and after 5 minutes shacking microplates were red by Envision (PerkinElmer) luminometer. The luminescent signal was proportional to the number of cells present in culture.
Inhibitory activity was evaluated comparing treated versus control data using Assay Explorer (MDL) program. IC50 was calculated using sigmoidal interpolation curve.

IC50 [nM]	SMILES
150	CCc1cccc(CC)c1NC(=O)c1nn(C)c2c1CCc1cnc(Nc3ccc(C(=O)NC4CCN(C)CC4)cc3OC)nc1-2 [Compound 2, N-(2,6-diethylphenyl)-8-({2-methoxy-4-[(1-methylpiperidin-4-yl)carbamoyl]phenyl}amino)-1-methyl-4,5-dihydro-1H-pyrazolo[4,3-h]quinazoline-3-carboxamide]
350	CCc1cccc(CC)c1NC(=O)c1nn(C)c2c1CCc1cnc(Nc3ccc(N4CCN(C)CC4)cc3OC(F)(F)F)nc1-2 [Compound 3, N-(2,6-diethylphenyl)-1-methyl-8-{[4-(4-methylpiperazin-1-yl)-2-(trifluoromethoxy)phenyl]amino}-4,5-dihydro-1H-pyrazolo[4,3-h]quinazoline-3-carboxamide]
100	CCc1cccc(CC)c1NC(=O)c1nn(C)c2c1CCc1cnc(Nc3ccc(N4CCN(C)CC4)cc3OC)nc1-2 [Compound 5, N-(2,6-diethylphenyl)-8-{[2-methoxy-4-(4-methylpiperazin-1-yl)phenyl]amino}-1-methyl-4,5-dihydro-1H-pyrazolo[4,3-h]quinazoline-3-carboxamide]
140	CCc1cccc(CC)c1NC(=O)c1nn(C)c2c1CCc1cnc(Nc3ccc(N(C)CCCN(C)C)cc3OC)nc1-2 [Compound 7, N-(2,6-diethylphenyl)-8-[(4-{[3-(dimethylamino)propyl](methyl)amino}-2-methoxyphenyl)amino]-1-methyl-4,5-dihydro-1H-pyrazolo[4,3-h]quinazoline-3-carboxamide]
100	CCc1cccc(CC)c1NC(=O)c1nn(C)c2c1CCc1cnc(Nc3ccc(C(N)=O)cc3OC)nc1-2 [Compound 13, 8-[(4-carbamoyl-2-methoxyphenyl)amino]-N-(2,6-diethylphenyl)-1-methyl-4,5-dihydro-1H-pyrazolo[4,3-h]quinazoline-3-carboxamide]
150	CCc1cccc(CC)c1NC(=O)c1nn(C)c2c1CCc1cnc(NC3CCN(S(=O)(=O)CCNC)CC3)nc1-2 [Compound 56, N-(2,6-diethylphenyl)-1-methyl-8-[(1-{[2-(methylamino)ethyl]sulfonyl}piperidin-4-yl)amino]-4,5-dihydro-1H-pyrazolo[4,3-h]quinazoline-3-carboxamide]
130	CCc1cccc(CC)c1NC(=O)c1nn(C)c2c1CCc1cnc(NC3CCN(S(C)(=O)=O)CC3)nc1-2 [Compound 57, N-(2,6-diethylphenyl)-1-methyl-8-{[1-(methylsulfonyl)piperidin-4-yl]amino}-4,5-dihydro-1H-pyrazolo[4,3-h]quinazoline-3-carboxamide]
650	CCc1cccc(CC)c1NC(=O)c1nn(C)c2c1CCc1cnc(NC3CCN(C(=O)CCNC)CC3)nc1-2 [Compound 66, N-(2,6-diethylphenyl)-1-methyl-8-{[1-(N-methyl-beta-alanyl)piperidin-4-yl]amino}-4,5-dihydro-1H-pyrazolo[4,3-h]quinazoline-3-carboxamide]
3400	Cn1nc(C(=O)N(O)C2CCCCC2)c2c1-c1nc(NC3CCCC3)ncc1CC2 [Prior art compound, N-cyclohexyl-8-(cyclopentylamino)-N-hydroxy-1-methyl-4,5-dihydro-1H-pyrazolo[4,3-h]quinazoline-3-carboxamide, reference compound]
